Measured values published in patent publication US7087228B2, “Preventing tooth decay and infective endocarditis using natural oligopeptides” (University of Southern California, priority 2002, dated 2006).

Legend:
[1] = system: S. mutans; assay: In vitro attachment assay to a smooth surface (Petri dish) with sucrose; format: cell-based; settings: CSP at 8 μg/mL for 10 minutes prior to hour-long incubation on Petri dishes with sucrose; up to 51% without CSP; FIG. 8
Experimental: The bacteria were grown in liquid cultures to the desired optical density. 20 ml of the cultures were then transferred into Petri dishes and sucrose added to the final concentration of 2%. The incubation was resumed for one hour, after which the liquid fraction was withdrawn and the fresh medium was added into which the layer of attached cells was scraped. The percentage of the attached bacteria was determined as the ratio of the optical densities of the attached to the total (a sum of attached and unattached) bacteria.
Synthetic CSP was dissolved in water to the concentration of 1 mg/mL as described in Li, Y-H et al., J. of Bact., 183:897–908 (2001). The cultures were grown in Todd Hewitt Broth (THB) supplemented with 5% horse serum. CSP was added to the cultures at the time of diluting the overnight culture (time zero of the culture growth) to a designated concentration between 1 and 8 mcg/mL. The incubation then continued up to the optical density where the expression of GTF is maximal (OD 650=0.1). The cultures where then collected and used in Western blotting with anti-glucosyltransferase (gtf) antibody. […]
An in vitro assay was performed to determine whether CSP can inhibit the attachment of S. mutans to a smooth surface. When sucrose was added to the medium, the wild-type S. mutans readily attached to the surface of a Petri dish. […]

[2] = system: gtfB gene of S. mutans; assay: Transcriptional fusion assay (gtfB promoter-luciferase, luminescence); format: cell-based; settings: increasing concentrations of CSP, 10 minutes incubation at peak expression (end of lag phase); FIG. 7
From the text: The fusion constructs and the transcription assay were previously described (Goodman, S. D. and Gao, Q., Plasmid 43:85–98 (2000)). Briefly, the constructs comprised the upstream regions of the gtfB and gtfC genes fused to the promoterless coding sequence of the firefly luciferase gene and inserted into the plasmid vector pVA838, a shuttle plasmid capable of propagating in both E. coli and S. mutans marked with erythromycin resistance. The plasmids were introduced into S. mutans GS5 by electroporation and the resulting erythromycin resistant strains were grown in liquid cultures and collected at various optical densities. The reporter gene (luciferase) expression was detected by measuring luminescence upon the addition of luciferin (the substrate for luciferase), see Goodman, S. D. and Gao Q. Plasmid 42:154–157 (1999), incorporated herein by reference.
(§1) Synthetic CSP was dissolved in water to the concentration of 1 mg/mL as described in Li, Y-H et al., J. of Bact., 183:897–908 (2001). […]
The transcriptional fusion assay was performed to determine whether CSP inhibits the expression of the gtfB gene of S. mutans. […] When the expression peaked at the end of the lag phase prior to the exponential growth, the cells were challenged with increasing concentrations of CSP for an incubation period of 10 minutes and assessed for luminescence, the measure of reporter gene expression. […]

[3] = system: GTFB expression in the wild-type S. mutans; assay: Western blot of GTFB expression after addition of CSP to cultures; format: cell-based; settings: CSP added to fresh cultures at the time of dilution, 1 to 8 mcg/mL, FIG. 6 panel 1
Experimental: (§2) For the Western blotting, the bacteria were incubated to the desired optical density, subjected to the freeze-thaw cycle and mixed with the sample loading buffer. The samples were heated at 100° C. for 15 minutes and subjected to the PAGE. The number of cells per lane of the gel was kept constant at 10^8 cells. The western blotting was performed in accordance with a standard procedure (Sambrook, J. and Russel D. W. Molecular Cloning, a laboratory manual, 3rd ed. Cold Spring Harbor Laboratory Press, NY, 2001). Briefly, after PAGE the samples were transferred onto the nitrocellulose membrane and the latter subjected to the standard ELISA procedure. The anti-GTFB mouse monoclonal antibody was previously characterized (Fukushima, K., Okada, T., Ochiai, K., Infection and Immunity 61:323–328 (1993), incorporated herein by reference). The secondary antibody (HRP-linked goat anti-mouse) and the detection reagents were purchased from Cell Signaling Technology (Beverly, Mass.).
as §1
(§3) A Western blot analysis was performed to determine the effect of CSP on the level of GTFB expression. […] As a control, the same blot was analyzed with antibody specific to FTF, where it was observed that CSP has no effect on FTF expression (FIG. 6, panel 2).

[4] = system: FTF expression; assay: Western blot control with antibody specific to FTF; format: cell-based, S. mutans; settings: same blot analyzed with antibody specific to FTF; FIG. 6 panel 2
Experimental: as §2, §1, §3

## CSP: natural peptide produced and secreted by S. mutans that acts as an autoinducer; sequence SEQ ID NO: 1 (FIG. 1); synthetic CSP was used (SGSLSTFFRLFNRSFTQALGK; Streptococcus mutans)
[1]
  bacterial cells localized to the attached layer: less than 8%
[2]
  repression of gtfB reporter gene expression (luminescence): increasing concentrations of CSP increased the magnitude of repression
[3]
  peak expression of GTFB (Western blot): lowered proportionally to the amount of peptide added
[4]
  effect on FTF expression (Western blot): no effect
